Columns and labels:
human IL-8 promoter [1] = test: IL-8 promoter luciferase assay, HeLa cells with wild type PPARγ; assay type: cell-based; conditions: GW347845 control
Protocol: (§1) For PPARγ activation assay, HEK293 cells were plated in 12-well cell culture plates and maintained in Dulbecco's modified Eagle's medium (DMEM) supplemented with 10% fetal bovine serum (FBS) at 37° C. under 5% CO2. Cells were changed to phenol red-free DMEM supplemented with 10% charcoal-stripped fetal bovine serum 3 hours before transfection by a standard calcium-phosphate precipitation method. Twelve hours after transfection, the cells were washed with phosphate-buffered saline (PBS) and fed again with fresh medium containing the indicated concentrations of compounds. After 36 hours, cells were harvested for β-galactosidase and luciferase activities as described previously (Li et al., Proc Natl Acad Sci USA 94:8479-84, 1997). The average normalized luciferase activity was determined via triplicate experiments. For IL-8 promoter assay, HeLa cells were maintained and transfected in the same way as described above. After transfection, cells were recovered for 4 hours before treatment with AJA, GW347845, or solvent. After 3-4 hours, cells were treated with or without 25 nM of phorbol myristate acetate (PMA) for 24 hours.
The IL-8 luciferase reporter controlled by the human IL-8 promoter (-97/-69) was cotransfected with mPPARγ or mPPARγ ΔAF2 mutant into HeLa cells. After transfection, cells were treated with AJA, GW347845 or solvent after PMA treatment for 24 hours. This was performed by determining the effect of AJA on IL-8 promoter activity and the role of PPARγ in this process. IL-8 is a biomarker for inflammation, and reduction of IL-8 levels correlates with a decrease in inflammation. The involvement of PPARγ in regulating IL-8 promoter activity was determined by comparing the IL-8 promoter activity in the presence of wild type PPARγ or its ΔAF2 mutant. In the experiment illustrated in FIG. 6A, PMA stimulated IL-8 promoter activity 3 fold, which was set as 100% promoter activity.

[2] = system: PPARγ2 and aP2 gene expression in 3T3 L1 cells; test: RT-PCR of adipocyte-specific genes; assay type: cell-based; conditions: versus vehicle control
Protocol: The adipocyte differentiation assay was performed as described by Mukherjee et. al. (Mol Endocrinol 14: 1425-33, 2000). The 3T3 L1 cells (American Type Culture Collection) were cultured in DMEM media supplemented with 10% calf serum. Two days after reaching confluence, cells were treated with AJA, GW347845, or vehicle (0.1% DMSO) in the presence of 10 μg/ml insulin every other day. After 10 days of treatment with AJA or 7 days with GW347845 at confluence, cells were fixed and stained with Oil Red O (Sigma). For RT-PCR, total cellular RNAs were isolated by TRIzol (Gibco). Reverse transcriptase polymerase chain reaction (RT-PCR) was performed using the superscript first-strand synthesis kit (Invitrogen). After first-strand cDNA was synthesized by use of oligo (dT), cDNA was amplified by PCR. The forward primers and reverse primers used in the amplifications were 5′-GCTGTTATGGGTGAAACTCTGGGAG-3′(SEQ ID NO: 1), and 5′-CTTCATGAGGCCTGTTGTAGAGC-3′ (SEQ ID NO:2), for PPARγ2, 5′-GAGCAAATGGAGTTCCCAGATG-3′ (SEQ ID NO: 3), and 5′-GCAAACAATGGGAATAGTTCACAGTAG-3′ (SEQ ID NO: 4), for aP2, and 5′-GACCACAGTCCATGCCATCAC-3′(SEQ ID NO: 5), and 5′-CATACCAGGAAATGAGCTGAC-3′ (SEQ ID NO: 6), for GAPDH. PCR amplifications were performed in 50 μL volume with Taq DNA polymerase for 30 cycles.
To confirm that AJA and GW347845 induce 3T3 L1 cell differentiation into adipocytes, the expression levels of the adipocyte-specific genes PPARγ2 and aP2 were measured by RT-PCR. Total RNA was isolated after AJA or GW347845 treatment, and compared with vehicle control. Reverse transcription was conducted and the relative amounts of PPARγ2 and aP2 transcripts were measured by PCR reactions using primer sets specific to each gene. PCR products were analyzed on 1% agarose gel and stained with Ethidium Bromide. […] As a control for the induction specificity and the PCR amplification reaction, the expression levels of GADPH were measured in all samples, and found not affected by any treatment.

human IL-8 promoter [3] = test: IL-8 promoter luciferase assay, HeLa cells with PPARγ ΔAF2 mutant; assay type: cell-based; conditions: cells transfected with PPARγ ΔAF2 mutant
Protocol: as §1, with “After 3-4 hours, cells were treated with or without 25 nM of phorbol myristate acetate (PMA) for 24 hours.” left out
The IL-8 luciferase reporter controlled by the human IL-8 promoter (-97/-69) was cotransfected with mPPARγ or mPPARγ ΔAF2 mutant into HeLa cells. […] The involvement of PPARγ in regulating IL-8 promoter activity was determined by comparing the IL-8 promoter activity in the presence of wild type PPARγ or its ΔAF2 mutant. […]

3T3 L1 fibroblasts = test: Adipocyte differentiation assay, Oil Red O staining; assay type: cell-based; conditions: 1 μM GW347845, 7 days, 10 μg/ml insulin
Protocol: The adipocyte differentiation assay was performed as described by Mukherjee et. al. (Mol Endocrinol 14: 1425-33, 2000). The 3T3 L1 cells (American Type Culture Collection) were cultured in DMEM media supplemented with 10% calf serum. Two days after reaching confluence, cells were treated with AJA, GW347845, or vehicle (0.1% DMSO) in the presence of 10 μg/ml insulin every other day. After 10 days of treatment with AJA or 7 days with GW347845 at confluence, cells were fixed and stained with Oil Red O (Sigma). For RT-PCR, total cellular RNAs were isolated by TRIzol (Gibco). Reverse transcriptase polymerase chain reaction (RT-PCR) was performed using the superscript first-strand synthesis kit (Invitrogen). After first-strand cDNA was synthesized by use of oligo (dT), cDNA was amplified by PCR. […]
3T3 L1 fibroblasts cells were cultured in DMEM supplemented with 10% calf serum. […] The cells were treated for 10 days with AJA, or 7 days with GW347845, and lipid accumulation in cells was assessed by Oil Red O staining.

PPARγ = biological target: T1, PPARγ (Homo sapiens, UniProt P37231); test: Activation of PPARγ by natural cannabinoids (no method given)
T1 sequence (P37231 1-505): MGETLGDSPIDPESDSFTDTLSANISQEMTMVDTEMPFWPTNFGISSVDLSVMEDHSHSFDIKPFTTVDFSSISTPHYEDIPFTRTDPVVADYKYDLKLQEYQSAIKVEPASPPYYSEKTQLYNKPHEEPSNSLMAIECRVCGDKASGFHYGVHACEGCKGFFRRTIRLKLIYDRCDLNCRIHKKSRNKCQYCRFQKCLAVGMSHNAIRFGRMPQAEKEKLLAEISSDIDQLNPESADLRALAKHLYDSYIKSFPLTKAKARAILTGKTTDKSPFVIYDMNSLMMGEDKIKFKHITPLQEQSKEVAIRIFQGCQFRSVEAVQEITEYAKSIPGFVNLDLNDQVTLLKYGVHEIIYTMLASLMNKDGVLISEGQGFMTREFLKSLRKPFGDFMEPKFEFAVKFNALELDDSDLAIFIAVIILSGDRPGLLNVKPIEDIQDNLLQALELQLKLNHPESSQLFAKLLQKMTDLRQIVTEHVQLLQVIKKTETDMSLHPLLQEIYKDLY

Row | Structure (SMILES) | reduction of IL-8 promoter activity (human IL-8 promoter [1]) | PPARγ2 gene expression [2] | aP2 gene expression [2] | effect on IL-8 promoter activity (human IL-8 promoter [3]) | lipid accumulation, Oil Red O staining (3T3 L1 fibroblasts) | activation of PPARγ (PPARγ)
1 | COC(=O)c1ccccc1N[C@@H](Cc1ccc(OCCc2nc(-c3ccccc3)oc2C)cc1)C(=O)O [GW347845, reference compound] | dramatically reduced IL-8 promoter activity | enhanced PPARγ2 and aP2 gene expression significantly | enhanced PPARγ2 and aP2 gene expression significantly | not with the ΔAF2 mutant | dramatic increase in lipid droplet staining | 
2 | CCCCCc1cc(O)c2c(c1)OC(C)(C)[C@@H]1CCC(C)=C[C@@H]21 [THC, Tetrahydrocannabinol] |  |  |  |  |  | also activate PPARγ

From US20040186166A1, “Cannabinoid analogs as peroxisome proliferator activated nuclear receptor gamma activators” (priority 2002, published 2004)
